Results from patent publication US20060263895A1, “Method for monitoring the stereoselectivity and relative rate of organic chemical reactions” (priority 2005, published 2006).
Like-named read-outs stand apart in the source and are kept apart here.

Key:
[1] = target: T1, Lactobacillus kefir alcohol dehydrogenase (LKADH) (Lentilactobacillus kefiri, UniProt Q6WVP7); assay: LKADH oxidation of 1,2-hexenediol; format: biochemical
T1 sequence (Q6WVP7 1-252): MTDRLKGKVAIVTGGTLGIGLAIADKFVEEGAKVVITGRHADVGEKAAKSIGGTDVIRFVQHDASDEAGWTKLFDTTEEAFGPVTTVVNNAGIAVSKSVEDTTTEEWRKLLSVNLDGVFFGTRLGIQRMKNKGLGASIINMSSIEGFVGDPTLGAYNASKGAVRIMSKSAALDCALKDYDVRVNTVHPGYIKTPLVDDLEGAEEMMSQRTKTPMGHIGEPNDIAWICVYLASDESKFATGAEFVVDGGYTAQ
From the text: (§1) The following examples illustrate the invention with respect to an in situ enzymatic screening (ISES) method to predict the enantioselectivity of chiral catalysts for the hydrolytic kinetic resolution (HKR) of (±) hexene oxide. Above, it was shown that the method of the invention may be employed to predict the enantioselectivity and relative rate of a catalyst library for HKR of (±)-propylene oxide using horse liver alcohol dehydrogenase (HLADH) and Thermoalaerobium brockii alcohol dehydrogenase (TBADH).

HLADH = target: T2, HLADH (Equus caballus, UniProt P00327); assay: HLADH oxidation of 1,2-hexenediol; format: biochemical, horse
T2 construct: purchased; host or cells: equine liver
T2 sequence (P00327 whole entry): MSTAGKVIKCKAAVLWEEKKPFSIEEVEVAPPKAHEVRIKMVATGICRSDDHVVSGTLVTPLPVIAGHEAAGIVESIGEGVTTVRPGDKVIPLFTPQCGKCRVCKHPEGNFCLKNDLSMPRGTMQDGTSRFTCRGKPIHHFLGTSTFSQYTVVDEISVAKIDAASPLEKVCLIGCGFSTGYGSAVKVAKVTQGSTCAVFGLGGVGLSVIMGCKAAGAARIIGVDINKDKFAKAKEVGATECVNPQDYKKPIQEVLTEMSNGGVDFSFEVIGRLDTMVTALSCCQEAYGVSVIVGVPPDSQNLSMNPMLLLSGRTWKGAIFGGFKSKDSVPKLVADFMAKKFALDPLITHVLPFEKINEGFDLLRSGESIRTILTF
From the text: as §1

[2] = target: T3, alcohol dehydrogenase from horse liver (HLADH) (Equus caballus, UniProt P00327); assay: HLADH relative velocity (enantioselectivity) and Michaelis-Menten kinetics with 1,2-propanediol; format: biochemical; conditions: for Km / Vmax: HLADH; for Km: 7.2 mM NAD+, pH 8.8, 25° C.; for Vmax: 0.049 U
T3 construct: purchased; host or cells: equine liver
T3 sequence (P00327 whole entry): as above
Procedure: 1. HLADH: The enantioselectivity of […] was estimated from the ratios of the initial velocities of (R)— vs. (S)-1,2-propanediol at fixed concentrations between 4.0 and 100 mM at 25° C. Each velocity measurement was made in duplicate. The assay cuvette contained the following: 7.2 mM NAD+ (33 μL from a 220 mM stock), 0.049 U of HLADH, and various concentrations of either the (R)— or (S)-enantiomer of 1,2-propanediol. In all cases, the final volume was adjusted to 1 mL using 50 mM sodium pyrophosphate buffer, pH 8.8.
(§2) Indeed, this was confirmed by the determination of Km's for each antipode of 1,2-propanediol for each enzyme. For each antipodal diol, the same data as were used to survey dehydrogenase enantioselectivity, as a function of diol concentration, were plotted in Michaelis-Menten fashion, as v0 vs. [S] (FIGS. 3 and 4). For each dehydrogenase, the data curve for (R)-1,2-propanediol is shown by -▪-, and those for the (S)-enantiomer by -●-. In all four cases, the data were processed by […], least squares fitting to a hyperbolic function. The resulting curve fits and best fit hyperbolic equations are presented above.

[3] = target: T4, alcohol dehydrogenase from Thermoanaerobium brockii (TBADH) (Thermoanaerobacter brockii, UniProt P14941); assay: TBADH relative velocity (enantioselectivity) and Michaelis-Menten kinetics with 1,2-propanediol; format: biochemical; conditions: for Km / Vmax: TBADH; for Km: 2.2 mM NADP+, pH 8.8, 25° C.; for Vmax: 0.113 U
T4 construct: purchased
T4 sequence (P14941 1-352): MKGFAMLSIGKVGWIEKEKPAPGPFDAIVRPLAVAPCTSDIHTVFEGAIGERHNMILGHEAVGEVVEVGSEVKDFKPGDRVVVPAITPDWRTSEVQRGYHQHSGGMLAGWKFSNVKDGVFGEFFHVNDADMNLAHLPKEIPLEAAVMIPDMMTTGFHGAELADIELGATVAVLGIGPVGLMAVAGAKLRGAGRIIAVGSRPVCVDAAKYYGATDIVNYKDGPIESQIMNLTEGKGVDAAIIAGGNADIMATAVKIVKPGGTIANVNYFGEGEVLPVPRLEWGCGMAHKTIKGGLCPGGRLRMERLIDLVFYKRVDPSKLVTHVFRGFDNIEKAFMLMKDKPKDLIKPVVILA
Procedure: 2. TBADH: The enantioselectivity of […] was estimated from the ratios of the initial velocities of (R)— vs. (S)-1,2-propanediol at fixed concentrations between 3.0 and 80 mM at 25° C. Each velocity measurement was performed in triplicate. The assay cuvette contained the following: 2.2 mM NADP+ (10 μL from a 220 mM stock), 0.113 U of TBADH, and various concentrations of either (R) or (S)-enantiomer of 1,2-propanediol. In all cases, the final volume was adjusted to 1 mL using 50 mM sodium pyrophosphate buffer, pH 8.8.
as §2

[4] = target: T4, alcohol dehydrogenase from Thermoanaerobium brockii (TBADH); conditions: read-out: reported Km value for NADP+ with TBADH; cited from earlier work
[5] = Double cuvette-ISES (in situ enzymatic screening) of Co(III)-salen mediated HKR of (±)-propylene oxide; conditions: for % ee predicted double cuvet-ISES: bilayer; for % ee of the 1,2-propanediol product, as predicted by double-cuvette ISES (upper number): bilayer of pH 8.6 buffer over 7.2 M epoxide in CHCl3, 0.25 mol % catalyst, 15-35 min, + = (S), − = (R)
In short: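 Co(III)-salen catalysts (0.25 mol %) in CHCl3 with (±)-propylene oxide (7.2 M in organic layer), overlaid with aqueous reporting layers in 50 mM sodium pyrophosphate, final pH 8.6. Reporters: 0.35 U HLADH/7.2 mM NAD+ ((S)-diol) or 0.35 U TBADH/2.2 mM NADP+ ((R)-diol). A340 increase gives enantioselectivity and relative rate estimates.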

[6] = HKR of (±)-propylene oxide under standard neat 'Jacobsen conditions' (NMR conversion, chiral HPLC ee); conditions: for NMR conv. (time): 3 h; for NMR conv. (time) / % ee (HPLC): loading 0.25 mol %; for % ee (HPLC) / % ee of the 1,2-propanediol product, as observed by chiral HPLC (lower number): + = (S), − = (R); for % ee of the 1,2-propanediol product, as observed by chiral HPLC (lower number): neat propylene oxide, 0.55 equiv. H2O, 0.25 mol % catalyst, 3 h reaction time
In short: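 Co(III)-salen catalyst (0.25 mol %) with neat (±)-propylene oxide and water (0.55 equiv.), added at 0° C., then stirred at room temperature, usually 3 h (longer if <5% conversion). Conversion by 1H NMR; diol isolated, derivatized to bis(p-bromobenzoate), ee by chiral HPLC.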

[7] = Catalyst performance in the ISES cuvette (biphasic HKR), ee of isolated diol by chiral HPLC; conditions: diol isolated from merged ISES cuvettes
Procedure: For several catalysts, control experiments were run to assess whether running the HKR under biphasic conditions influences the enantioselectivity of these Co(III)-salen HKR catalysts. In such cases, parallel duplicate ‘double-cuvette’ runs were chosen (i.e. two HLADH cuvettes and two TBADH cuvettes for a single catalyst). Following the ISES runs, the contents of all four reporting cuvettes were merged. Unreacted epoxide was rapidly removed under Ar stream. Following dilution with CH2Cl2 (˜50 mL), sodium sulfate was added to adsorb remaining water. The resulting organic solution was filtered and the filter cake washed with CH2Cl2 (2×20 mL). Following evaporation of the solvent, the crude diols were derivatized directly with p-bromobenzoyl imidazole to yield the 1,2-propanediol bis(pbromobenzoate) esters, which were then purified by silica gel chromatography to estimate diol yields. Enantiomeric excesses were determined using chiral HPLC, as before. […] Indeed, the ee's seen from diol isolated directly out of the cuvette generally appear slightly higher than those obtained under ‘Jacobsen conditions,’ probably reflecting the shorter reaction times employed in the ISES experiment.

[8] = [total 1,2-propanediol] in aqueous ISES layer by 1H NMR
Procedure: The concentration of 1,2-propanediol in the aqueous layer was estimated under typical ISES conditions using 1H NMR spectroscopy. The bilayer was prepared as usual for double cuvette-ISES (Section V), but for the substitution of D2O for H2O in the buffer, and the elimination of the dehydrogenase enzymes. After 15 min, the aqueous layer (300 μL of 500 μL total) was withdrawn and mixed with a fresh solution of imidazole of known concentration (also 300 μL in D2O), as an internal concentration standard. Accumulation of the 1H NMR spectrum, followed by integration and quantitation, provided an experimental measure of [total diol] in the aqueous reporting layer at t=15 minutes for the catalyst under investigation. The observed diol concentrations for ten catalysts examined in this way are collected in Table S6, below. These have been normalized to the value for the catalyst derived from salen 3b (arbitrarily assigned a rate of 1.0).

[9] = reaction stopped at the time given (mostly 3 h)

Compound: CCCCC(O)CO (centres unmarked)
- selectivity of LKADH for the oxidation of 1,2-hexenediol [1]: high (S)-selectivity
- selectivity of HLADH for the oxidation of 1,2-hexenediol (HLADH): modest (S)-selectivity

Compound: CC(O)CO (centres unmarked) [1,2-Propanediol]
- vS/vR of HLADH ([2]; 1,2-propanediol conc. 4 mM, 25° C.): 4.0
- vS/vR of HLADH ([2]; 1,2-propanediol conc. 8 mM): 3.6
- vS/vR of HLADH ([2]; 1,2-propanediol conc. 12 mM): 2.8
- vS/vR of HLADH ([2]; 1,2-propanediol conc. 16 mM): 2.4
- vS/vR of HLADH ([2]; 1,2-propanediol conc. 20 mM): 2.7
- vS/vR of HLADH ([2]; 1,2-propanediol conc. 30 mM): 2.8
- vS/vR of HLADH ([2]; 1,2-propanediol conc. 40 mM): 3.0
- vS/vR of HLADH ([2]; 1,2-propanediol conc. 50 mM): 2.7
- vS/vR of HLADH ([2]; 1,2-propanediol conc. 100 mM): 2.6
- vR/vS of TBADH ([3]; 1,2-propanediol conc. 3 mM, 25° C.): 10.8
- vR/vS of TBADH ([3]; 1,2-propanediol conc. 6 mM): 8.9
- vR/vS of TBADH ([3]; 1,2-propanediol conc. 10 mM): 9.9
- vR/vS of TBADH ([3]; 1,2-propanediol conc. 20 mM): 10.6
- vR/vS of TBADH ([3]; 1,2-propanediol conc. 30 mM): 9.1
- vR/vS of TBADH ([3]; 1,2-propanediol conc. 40 mM): 8.4
- vR/vS of TBADH ([3]; 1,2-propanediol conc. 50 mM): 9.0
- vR/vS of TBADH ([3]; 1,2-propanediol conc. 60 mM): 9.1
- vR/vS of TBADH ([3]; 1,2-propanediol conc. 80 mM): 8.6

Compound: C[C@@H](O)CO [(R)-1,2-propanediol]
- Km [2]: 25 ± 2 mM
- Vmax [2]: 355±9 mAbs min−1
- enantiomeric preference of TBADH [3]: significant preference
- Km [3]: 17 ± 2 mM
- Vmax [3]: 487±18 mAbs min−1

Compound: C[C@H](O)CO [(S)-1,2-propanediol]
- Km [2]: 16 ± 1 mM
- Vmax [2]: 819±20 mAbs min−1
- Km [3]: 23 ± 4 mM
- Vmax [3]: 60±4 mAbs min−1

Compound: NC(=O)c1ccc[n+]([C@@H]2O[C@H](COP(=O)([O-])OP(=O)(O)OC[C@H]3O[C@@H](n4cnc5c(N)ncnc54)[C@H](OP(=O)(O)O)[C@@H]3O)[C@@H](O)[C@H]2O)c1 [NADP+]
- Km [4]: 0.013 mM

Compound: CC(C)(C)c1cc(C=NC[C@H](Cc2cccc3ccccc23)N=Cc2cc(C(C)(C)C)cc(C(C)(C)C)c2O)c(O)c(C(C)(C)C)c1 [Salen 4a, N,N′-Bis(3′,5′-di-tert-butylsalicylidene)-(1S)-(α-naphthylmethyl)-1,2-ethylenediamine]
- % ee predicted double cuvet-ISES [5]: 77 % ee
- % ee of the 1,2-propanediol product, as predicted by double-cuvette ISES (upper number) [5]: +77 % ee
- NMR conv. (time) [6]: 35 (3 h) %
- % ee (HPLC) [6, 9]: +76 (S) % ee
- % ee measured neat 'Jacobsen conditions' [6]: 76 % ee
- % ee of the 1,2-propanediol product, as observed by chiral HPLC (lower number) [6]: +76 % ee
- % ee measured biphasic conds. [7]: 82 % ee

Compound: CO[C@H]1[C@@H]2OC(C)(C)O[C@@H]2COC1(CN=Cc1cc(C(C)(C)C)cc(C(C)(C)C)c1O)N=Cc1cc(C(C)(C)C)cc(C(C)(C)C)c1O (some centres unmarked) [Salen 7a, N,N′-Bis(3′,5′-di-tert-butylsalicylidene)-3-O-methyl-4,5-O-isopropylidene-1,2-dideoxy-Dfructopyranosyl-1,2-diamine]
- % ee predicted double cuvet-ISES [5]: −33 % ee
- % ee of the 1,2-propanediol product, as predicted by double-cuvette ISES (upper number) ([5]; listed as 7a*): −33 % ee
- NMR conv. (time) ([6]; listed as 7a*): 7 (3 h) %
- % ee (HPLC) ([6]; reaction stopped at the time printed in the row (mostly 3 h), listed as 7a*): −59 (R) % ee
- % ee measured neat 'Jacobsen conditions' [6]: −59 % ee
- % ee of the 1,2-propanediol product, as observed by chiral HPLC (lower number) ([6]; listed as 7a*): −59 % ee
- % ee measured biphasic conds. [7]: −55 % ee

Compound: N,N′-Bis(3′,5′-di-tert-butylsalicylidene[1R-(1α,2α,5α)]-2-amino-7,7-dimethyl-2-bicyclo[3.3.1]heptane-ethanamine [Salen 1a]
- % ee predicted double cuvet-ISES [5]: 56 % ee
- % ee of the 1,2-propanediol product, as predicted by double-cuvette ISES (upper number) [5]: +56 % ee
- NMR conv. (time) [6]: 12 (3 h) %
- % ee (HPLC) [6, 9]: +72 (S) % ee
- % ee measured neat 'Jacobsen conditions' [6]: 72 % ee
- % ee of the 1,2-propanediol product, as observed by chiral HPLC (lower number) [6]: +72 % ee
- % ee measured biphasic conds. [7]: 87 % ee
- [diol] (mM) @ 15 min ([8]; aqueous ISES layer, 1H NMR, t = 15 min): 19 mM
- Norm. ([8]; normalized to the catalyst derived from salen 3b (rate 1.0)): 0.20
